Measured values: US5006515A, “Pharmaceuticals, phosphorus-containing 2-isoxazolines and isoxazoles contained therein” (Hoechst Aktiengesellschaft, priority 1987, dated 1991)

Legend:
peritoneal macrophages = assay: Stimulation of the release of lysosomal enzymes from peritoneal macrophages (exocytosis); details: for Enzyme activity N-Ac-Glu / Enzyme activity β-Gal / Enzyme activity β-Glu: single dose
Staphylococcus aureus = Staphylococcus aureus infection of immunosuppressed mice; format: in vivo, female B6D2F1 mice; details: up to day 45
Description: It is known that distinct immunosuppression can be induced in experimental animals by multiple administration of a cytostatic and is expressed by an increased susceptibility to infection with a drastic rise in mortality. […] Another group of infected animals which had not, however, been immunosuppressed by pretreatment with ADM was included as negative control. The immunosuppressed animals in the three active product groups received, on 4 consecutive days starting one day before the infection, the test substance, with intraperitoneal doses each of 0.1, 1 or 10 mg/kg being administered. Each experimental group comprised 20 animals.

B16 melanoma = assay: Stimulation of defenses against B16 melanoma in the mouse; format: in vivo, female C57B1/6 mice; details: intervals of 2 days, day 4 to day 100
Description: A primary tumor was generated with 2×10^5 live B16 melanoma cells in female C57B1/6 mice with a body weight of 18 to 20 g and, after having grown to a diameter of 0.65 cm, was removed surgically. The animals subsequently died of metastases in the lung. The investigation now was of whether the mean survival time after removal of the primary tumor, that is to say the time at which 50% of the animals are still alive, can prolonged by intraperitoneal treatment with the compounds of the formula I. For this purpose, after amputation of the primary tumor, the mice were divided into groups each containing 10 animals and were treated with i.p. doses each of 1.25 or 2.5 mg/kg test substance at intervals of 2 days from day 4 to day 100. The animals in the control group received merely the pure vehicle PBS (physiological saline) in the same therapeutic regimen.

Acute toxicity = assay: Acute toxicity; design: species or system mice; details: mouse, in vivo, iv, single dose, mortality within 7 days
Experimental: The LD50 values were determined by the standard method via the mortality occurring within 7 days in NMRI (Naval Medical Research Institute) mice (6 animals per dose) after a single intraperitoneal (i.p.) or intravenous (i.v.) dose.

Salmonella typhimurium = assay: Chronic Salmonella typhimurium infection in the mouse; format: in vivo, female NMRI mice; details: 10 × 5 mg/kg i.p.; day 22
Experimental: Female NMRI mice (20 animals/group) were infected by intravenous administration of 5×10^3 Salmonella typhimurium organisms. The animals subsequently developed a chronic infection which was characterized by persistent bacterial colonization of the organs, such as the liver and the spleen, with necrosis. The test substance was administered intraperitoneally in a dose of 5 mg/kg at intervals of two days from day 3 to day 21 after infection. The animals in a control group received only the vehicle. On day 22 after the infection, the mortality in both experimental groups was determined, and the organs of the animals which survived were examined for organisms and necrosis.

active Arthus reaction = assay: Active Arthus reaction in the rat; format: in vivo, Sprague-Dawley rats; details: Rattus norvegicus, po, 4 h, oral dose 35 mg/kg, 4 h after ovalbumin challenge; read-out: Active Arthus reaction % change
Experimental: The experimental animals used were female and male Sprague-Dawley rats with a body weight between 80 and 100 g which received subcutaneous injections into the tail-head of 0.5 ml of an emulsion of pertussis vaccine and ovalbumin in liquid paraffin. After two weeks, the rats were divided into groups each of 8 animals. 24 hours and 1 hour before induction of the Arthus reaction by injection of 0.1 ml of a 0.4% strength ovalbumin solution into the right hind paw, the particular test substance or the pure vehicle (positive control) was administered orally, sodium chloride solution was injected into the left paw. One group of unsensitized animals (negative control group) was likewise treated with ovalbumin in order to be able to rule out nonspecific reactions to the protein. The parameter used for measuring the action of the product was the percentage change in the increase in paw volume compared with that in the control group which was sensitized but untreated (positive control) 4 hours after ovalbumin challenge, when the swelling had reached its maximum.

O=P(O)(O)C1CC(c2ccccc2)=NO1 (racemic) [Example 34, 3-Phenyl-2-isoxazolin-5-ylphosphonic acid]
Enzyme activity N-Ac-Glu (peritoneal macrophages; 5 mg/kg i.p.): 2607 mU/ml | Enzyme activity β-Gal (peritoneal macrophages; 5 mg/kg i.p.): 2357 mU/ml | Enzyme activity β-Glu (peritoneal macrophages; 5 mg/kg i.p.): 1197 mU/ml | Enzyme activity N-Ac-Glu (peritoneal macrophages; 5 mg/kg p.o.): 2071 mU/ml | Enzyme activity β-Gal (peritoneal macrophages; 5 mg/kg p.o.): 2216 mU/ml | Enzyme activity β-Glu (peritoneal macrophages; 5 mg/kg p.o.): 973 mU/ml | Enzyme activity N-Ac-Glu (peritoneal macrophages; 10 mg/kg i.p.): 4822 mU/ml | Enzyme activity β-Gal (peritoneal macrophages; 10 mg/kg i.p.): 3956 mU/ml | Enzyme activity β-Glu (peritoneal macrophages; 10 mg/kg i.p.): 1542 mU/ml | Enzyme activity N-Ac-Glu (peritoneal macrophages; 10 mg/kg p.o.): 4283 mU/ml | Enzyme activity β-Gal (peritoneal macrophages; 10 mg/kg p.o.): 3513 mU/ml | Enzyme activity β-Glu (peritoneal macrophages; 10 mg/kg p.o.): 1393 mU/ml | Enzyme activity N-Ac-Glu (peritoneal macrophages; 20 mg/kg i.p.): 6812 mU/ml | Enzyme activity β-Gal (peritoneal macrophages; 20 mg/kg i.p.): 6918 mU/ml | Enzyme activity β-Glu (peritoneal macrophages; 20 mg/kg i.p.): 2067 mU/ml | Enzyme activity N-Ac-Glu (peritoneal macrophages; 20 mg/kg p.o.): 6128 mU/ml | Enzyme activity β-Gal (peritoneal macrophages; 20 mg/kg p.o.): 6011 mU/ml | Enzyme activity β-Glu (peritoneal macrophages; 20 mg/kg p.o.): 1979 mU/ml | Enzyme activity N-Ac-Glu (peritoneal macrophages; 40 mg/kg i.p.): 9281 mU/ml | Enzyme activity β-Gal (peritoneal macrophages; 40 mg/kg i.p.): 9318 mU/ml | Enzyme activity β-Glu (peritoneal macrophages; 40 mg/kg i.p.): 2547 mU/ml | Enzyme activity N-Ac-Glu (peritoneal macrophages; 40 mg/kg p.o.): 8432 mU/ml | Enzyme activity β-Gal (peritoneal macrophages; 40 mg/kg p.o.): 9262 mU/ml | Enzyme activity β-Glu (peritoneal macrophages; 40 mg/kg p.o.): 2286 mU/ml | release of acid hydrolases, in words (peritoneal macrophages; i.p. or oral): increased as a function of the dose | Mortality (Staphylococcus aureus; 0.1 mg/kg 4 × i.p.): 5/20 | Mortality (Staphylococcus aureus; 1.0 mg/kg 4 × i.p.): 8/20 | Mortality (Staphylococcus aureus; 10.0 mg/kg 4 × i.p.): 8/20 | % survival after 100 days (B16 melanoma; 1.25 mg/kg i.p.): 20% | Mean survival time (B16 melanoma; 1.25 mg/kg i.p.): 41 days | % survival after 100 days (B16 melanoma; 2.50 mg/kg i.p.): 30% | Mean survival time (B16 melanoma; 2.50 mg/kg i.p.): 43 days | LD50 at 168 h (Acute toxicity): 200 to 300 mg/kg | % of surviving animals with liver necroses (Salmonella typhimurium): 58% | % of surviving animals with organism-positive livers (Salmonella typhimurium): 67% | % of surviving animals with severe liver necroses (Salmonella typhimurium): 42% | % of surviving animals with spleen necroses (Salmonella typhimurium): 0% | Mortality (Salmonella typhimurium): 8/20 | change in vivo at 35 mg/kg (active Arthus reaction): -16%
